Assay results from paper PMC7037546, “High Cell Selectivity and Bactericidal Mechanism of Symmetric Peptides Centered on D-Pro–Gly Pairs” (International Journal of Molecular Sciences, 2020).
In brackets after ≈: the same amount, converted by molar mass. Non-standard residues stand in square brackets, D forms with d. Residues, ends and D or L forms follow the SMILES beside them. No end group written: not given here.

Columns and labels:
HEK293T cells = assay: Cytotoxicity, CCK-8 assay; format: cell-based, human; settings: 64 μM peptide, 16 h, CCK-8, OD 450 nm
Description: (§1) The cytotoxicity was detected according to a CCK-8 assay as described previously. Briefly, RAW 264.7 and HEK293T cells were placed into 96-well plates at a density of 1.0–2.0 × 10^5, and then cultured for 16 h under conditions of 5% CO2. Then, two-fold diluted peptides in DMEM were added to the plates. After 16 h of culturing, CCK-8 (10%, v/v) was put into each well containing cell culture, and mixtures were cultured for 2 h. The cytotoxicity assay was examined by measuring the OD of the mixtures at 450 nm (Microplate reader, TECAN GENios F129004, Tecan, Salzburg, Austria). The assays were performed three times.

E. coli ATCC25922 [1] = settings: ATCC25922, 16 h
Description: The combined antibacterial effect of peptides with other antibiotics was evaluated by checkerboard assay as described previously. […] Subsequently, each peptide at the same concentration was added to the longitudinal column of wells, and each antibiotic at the same concentration was added to the horizontal row of wells. A suspension at 10^5 CFU/mL was put into each well for 16 h at 37 °C. Each assay was performed three times.

Gram-positive bacteria = assay: Geometric mean of MICs and therapeutic index, Gram (+); format: cell-based; settings: geometric mean over the Gram-positive strains of Table 2; 256 μM used when no activity at 128 μM
Description: (§2) The antimicrobial activity of the designed peptides was examined using the micro-dilution method described previously. The bacteria were cultured for 16 h in MHB at 37 °C, and the microbial suspension was diluted to a final concentration of 10^5 colony-forming units (CFU)/mL. Then, 50 µL of MHB containing different concentrations peptides (0.25–256 µM) was mixed with 50 µL of bacterial solution, and the mixture was added to a 96-well plate. […] The assays were performed three times.

[2] = test system: Escherichia coli ATCC25922; assay: microbe, parasite or virus in culture; settings: ATCC25922, 16 h
Description: as §2

RAW 264.7 cells = assay: Cytotoxicity, CCK-8 assay; format: cell-based, murine; settings: 64 μM peptide, 16 h, CCK-8, OD 450 nm
Description: as §1

E. coli ATCC25922 [3] = format: cell-based, Escherichia coli; settings: for MIC after pH treatment, pH 4 / MIC after pH treatment, pH 6 / MIC after pH treatment, pH 8 / MIC after pH treatment, pH 10: ATCC25922, 1 h; for MIC after temperature treatment, 0 °C / MIC after temperature treatment, 37 °C / MIC after temperature treatment, 100 °C / MIC in the presence of FeCl3 / MIC in the presence of KCl / MIC in the presence of MgCl2 / MIC in the presence of NH4Cl / MIC in the presence of NaCl / MIC in the presence of ZnCl2 / MIC, Control / MIC, Control (pH 7): ATCC25922, 16 h
Description: as §2
The salt, temperature, and pH sensitivities of designed peptides were determined by MIC assay as described previously. For the salt sensitivity assay, peptides were diluted in deionized water containing different salts, and mixed with E. coli ATCC25922 (10^5 CFU/mL). The final physiological concentrations of different salts were as follows: 150 mM NaCl, 4.5 mM KCl, 6 μM NH4Cl, 1 mM MgCl2, 8 μM ZnCl2, and 4 μM FeCl3. For temperature sensitivity, peptides were cooled on ice for 10 min, and incubated at 37 °C and 100 °C for 30 min. For pH sensitivity, peptides were treated with different pH for 1 h. Briefly, peptides were diluted in deionized water, and the pH of the solution was adjusted to 4.0, 6.0, 8.0, and 10.0 with HCl or NaOH. The subsequent steps were the same as for the MIC measurements. These tests were performed three times.

[4] = test system: Enterococcus faecalis ATCC29212; settings: ATCC29212, 16 h
Description: as §2

[5] = test system: Staphylococcus aureus ATCC25923; settings: ATCC25923, 16 h
Description: as §2

[6] = test system: Klebsiella pneumonia CMCC46117; settings: CMCC46117, 16 h
Description: as §2

S. aureus ATCC29213 = settings: ATCC29213, 16 h
Description: as §2

[7] = test system: methicillin-resistant S. aureus ATCC43300; settings: ATCC43300, 16 h
Description: as §2

[8] = test system: Salmonella Pullorum NCTC5776; settings: NCTC5776, 16 h
Description: as §2

[9] = test system: Pseudomonas aeruginosa ATCC27853; settings: ATCC27853, 16 h
Description: as §2

E. coli K88 = settings: micro-dilution in MHB, 10^5 CFU/mL, 16 h, OD 492 nm, performed three times
Description: as §2

Gram-negative bacteria = settings: 16 h
Description: as §2

Compound | cell survival rate (HEK293T cells) [%] | GM (geometric mean of MICs), Gram (+) (Gram-positive bacteria) [µM] | MIC [2] [µM] | cell survival rate (RAW 264.7 cells) [%] | MIC after pH treatment, pH 4 (E. coli ATCC25922 [3]) [µM] | MIC after pH treatment, pH 6 (E. coli ATCC25922 [3]) [µM] | MIC after pH treatment, pH 8 (E. coli ATCC25922 [3]) [µM] | MIC after pH treatment, pH 10 (E. coli ATCC25922 [3]) [µM] | MIC after temperature treatment, 0 °C (E. coli ATCC25922 [3]) [µM] | MIC after temperature treatment, 37 °C (E. coli ATCC25922 [3]) [µM] | MIC after temperature treatment, 100 °C (E. coli ATCC25922 [3]) [µM] | MIC in the presence of FeCl3 (E. coli ATCC25922 [3]) [µM] | MIC in the presence of KCl (E. coli ATCC25922 [3]) [µM] | MIC in the presence of MgCl2 (E. coli ATCC25922 [3]) [µM] | MIC in the presence of NH4Cl (E. coli ATCC25922 [3]) [µM] | MIC in the presence of NaCl (E. coli ATCC25922 [3]) [µM] | MIC in the presence of ZnCl2 (E. coli ATCC25922 [3]) [µM] | MIC, Control (E. coli ATCC25922 [3]) [µM] | MIC, Control (pH 7) (E. coli ATCC25922 [3]) [µM] | MIC [4] [µM] | further results
CC(C)C[C@H](NC(=O)[C@H](CC(C)C)NC(=O)[C@H](CCCNC(=N)N)NC(=O)[C@H](CC(C)C)NC(=O)[C@H](CC(C)C)NC(=O)[C@H](CCCNC(=N)N)NC(=O)[C@H](CCCNC(=N)N)NC(=O)CNC(=O)[C@H]1CCCN1C(=O)[C@H](CCCNC(=N)N)NC(=O)[C@H](CCCNC(=N)N)NC(=O)[C@H](CC(C)C)NC(=O)[C@H](CC(C)C)NC(=O)[C@H](CCCNC(=N)N)NC(=O)[C@H](CC(C)C)NC(=O)[C@@H](N)CC(C)C)C(N)=O [LRpG] (H-LLRLLRR[dP]GRRLLRLL-NH2) | 93 | 19.0 | 2 (≈ 4.03 µg/mL) | 92 | 2 | 2 | 2 | 4 | 2 (≈ 4.03 µg/mL) | 2 (≈ 4.03 µg/mL) | 2 (≈ 4.03 µg/mL) | 2 | 2 | 2 | 2 | 8 | 2 | 2 (≈ 4.03 µg/mL) | 2 | 32 (≈ 64.4 µg/mL) | FICI in combination with Cefotaxime (E. coli ATCC25922 [1]): 1; FICI in combination with Chloramphenicol (E. coli ATCC25922 [1]): 0.75; FICI in combination with Ciprofloxacin (E. coli ATCC25922 [1]): 0.625; FICI in combination with Streptomycin (E. coli ATCC25922 [1]): 0.5; FICI in combination with other conventional antibiotics (additive effect) (E. coli ATCC25922 [1]): 0.625-1; MIC [5]: 16 µM (≈ 32.2 µg/mL); MIC [6]: 4 µM (≈ 8.05 µg/mL); MIC (S. aureus ATCC29213): 16 µM (≈ 32.2 µg/mL); MIC [7]: 16 µM (≈ 32.2 µg/mL); MIC [8]: 4 µM (≈ 8.05 µg/mL); MIC [9]: 8 µM (≈ 16.1 µg/mL); MIC (E. coli K88): 2 µM (≈ 4.03 µg/mL); GM (geometric mean of MICs), Gram (−) (Gram-negative bacteria): 3.5 µM
FFRFFRRGGRRFFRFF-NH2 [FRGG] | 76 | 26.9 | 8 | 66 | 32 | 8 | 8 | 32 | 8 | 8 | 8 | 8 | 8 | 16 | 8 | 64 | 16 | 8 | 8 | 32 | MIC [5]: 32 µM; MIC [6]: 16 µM; MIC (S. aureus ATCC29213): 16 µM; MIC [7]: 32 µM; MIC [8]: 16 µM; MIC [9]: 32 µM; MIC (E. coli K88): 16 µM; GM (geometric mean of MICs), Gram (−) (Gram-negative bacteria): 16 µM
IIRIIRRGGRRIIRII-NH2 [IRGG] | 96 | 256 | 8 | 95 | 16 | 8 | 8 | 16 | 8 | 8 | 8 | 8 | 8 | 16 | 8 | 64 | 16 | 8 | 8 | >128 | MIC [5]: >128 µM; MIC [6]: 32 µM; MIC (S. aureus ATCC29213): >128 µM; MIC [7]: >128 µM; MIC [8]: 32 µM; MIC [9]: 32 µM; MIC (E. coli K88): 16 µM; GM (geometric mean of MICs), Gram (−) (Gram-negative bacteria): 21.1 µM
LLRLLRRGGRRLLRLL-NH2 [LRGG] | 91 | 22.6 | 2 | 84 | 2 | 2 | 2 | 4 | 2 | 2 | 2 | 2 | 2 | 4 | 2 | 8 | 2 | 2 | 2 | 32 | MIC [5]: 16 µM; MIC [6]: 8 µM; MIC (S. aureus ATCC29213): 16 µM; MIC [7]: 32 µM; MIC [8]: 4 µM; MIC [9]: 8 µM; MIC (E. coli K88): 4 µM; GM (geometric mean of MICs), Gram (−) (Gram-negative bacteria): 4.6 µM
